Reference: PMC3876054, “Tyrosol and Its Analogues Inhibit Alpha-Melanocyte-Stimulating Hormone Induced Melanogenesis” (International Journal of Molecular Sciences, 2013)

Legend:
mushroom tyrosinase [1] = target: T1, mushroom tyrosinase (Agaricus bisporus, UniProt C7FF04); assay: spectrophotometric dopachrome assay with L-tyrosine; % inhibition at […]; assay type: biochemical; conditions: read-out: % inhibition at 4 mM
T1 construct: gene PPO3

mushroom tyrosinase [2] = target: T1, mushroom tyrosinase; assay: as above; assay type: biochemical; conditions: read-out: % inhibition at 0.4 mM

T1 sequence (C7FF04 2-392): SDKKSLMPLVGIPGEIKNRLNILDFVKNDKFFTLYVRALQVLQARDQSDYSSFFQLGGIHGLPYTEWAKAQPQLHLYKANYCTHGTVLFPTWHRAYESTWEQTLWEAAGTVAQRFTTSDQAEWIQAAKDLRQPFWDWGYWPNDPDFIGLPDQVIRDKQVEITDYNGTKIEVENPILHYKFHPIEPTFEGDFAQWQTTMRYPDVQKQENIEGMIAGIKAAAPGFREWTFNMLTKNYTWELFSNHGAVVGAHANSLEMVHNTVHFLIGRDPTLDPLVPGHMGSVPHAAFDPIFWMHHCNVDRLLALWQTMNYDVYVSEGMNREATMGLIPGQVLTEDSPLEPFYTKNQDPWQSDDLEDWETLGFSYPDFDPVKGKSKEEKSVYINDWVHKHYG

| SMILES | inhibition at 4000 µM (mushroom tyrosinase [1]) [%] | inhibition at 400 µM (mushroom tyrosinase [2]) [%] |
| --- | --- | --- |
| OCCc1ccc(O)cc1 [compound 1, tyrosol] | 42.5 | – |
| OCCc1cccc(O)c1 [compound 2, 2-(3-hydroxyphenyl)ethanol] | 45.3 | – |
| Cc1ccc(CCO)cc1 [compound 10, 2-(4-methylphenyl)ethanol] | 46.7 | – |
| OC[C@H]1O[C@@H](OCCc2ccc(O)cc2)[C@H](O)[C@@H](O)[C@@H]1O [compound 11, salidroside] | – | 22.2 |
